Data on 31 compounds can be found in US7973061B2, “Anaplastic lymphoma kinase modulators and methods of use” (Exelixis, Inc., priority 2004, dated 2011).

pIC50: −log10 of the molar value.

This test deals with T1, ALK (baculovirus expressed human ALK kinase domain F1098-K1410) (Homo sapiens, UniProt Q9UM73).
T1 construct: human ALK kinase domain F1098-K1410; made in house
T1 sequence (Q9UM73 1098-1410): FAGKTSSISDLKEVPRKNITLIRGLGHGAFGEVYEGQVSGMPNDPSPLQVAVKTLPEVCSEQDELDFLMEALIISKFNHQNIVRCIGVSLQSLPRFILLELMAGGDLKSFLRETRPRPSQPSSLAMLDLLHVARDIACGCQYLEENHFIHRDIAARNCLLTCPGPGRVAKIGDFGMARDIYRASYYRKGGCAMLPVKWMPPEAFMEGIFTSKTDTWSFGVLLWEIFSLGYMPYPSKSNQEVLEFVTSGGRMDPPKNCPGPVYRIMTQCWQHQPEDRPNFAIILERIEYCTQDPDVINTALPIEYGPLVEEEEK
Description: biochemical. Particulars: 1 μM ATP, 4 μM poly-AEKY, 12 nM ALK, 2 hours at ambient temperature; read-out: ALK IC50. The procedure, abridged:
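Inhibitors were tested at 10 concentrations, and IC50 was derived from a sigmoidal fit (Min, Max, Hill slope). Kinase activity was measured as percent ATP left after a 2 h reaction at room temperature, detected by luciferase-luciferin chemiluminescence. The ATP level was set close to KM for the ALK kinase domain F1098-K1410.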
One may read the pIC50 as −log10 of the IC50, conventionally taken in molar units. As for `O=C(COc1ccc(OC(F)(F)F)cc1)NCc1nc(C(=O)NCc2ccc(F)c(F)c2)cs1` [Entry 185, N-[(3,4-difluorophenyl)methyl]-2-({[({4-[(trifluoromethyl)oxy]phenyl}oxy)acetyl]amino}methyl)-1,3-thiazole-4-carboxamide], the pIC50 is 6.30 to 7.30. In the case of `O=C(COc1ccc(OC(F)(F)F)cc1)NCc1nc(C(=O)N2CCc3c([nH]c4ccccc34)C2)cs1` [Entry 96, N-{[4-(1,3,4,9-tetrahydro-2H-beta-carbolin-2-ylcarbonyl)-1,3-thiazol-2-yl]methyl}-2-({4-[(trifluoromethyl)oxy]phenyl}oxy)acetamide] it was 6.30 to 7.30; in that of `COc1cc(CCNC(=O)c2csc(CNC(=O)COc3ccc(OC(F)(F)F)cc3)n2)cc(OC)c1` [Entry 30, N-{2-[3,5-bis(methyloxy)phenyl]ethyl}-2-({[({4-[(trifluoromethyl)oxy]phenyl}oxy)acetyl]amino}methyl)-1,3-thiazole-4-carboxamide], 6.30 to 7.30. Next, `O=C(COc1ccc(OC(F)(F)F)cc1)NCc1cc(C(=O)NCCc2cccc(Cl)c2)no1` [Entry 299, N-[2-(3-chlorophenyl)ethyl]-5-({[({4-[(trifluoromethyl)oxy]phenyl}oxy)acetyl]amino}methyl)isoxazole-3-carboxamide]: less than 5.70; `CN(C)c1ccc(CNC(=O)c2csc(CNC(=O)COc3ccc(OC(F)(F)F)cc3)n2)cc1` [Entry 237, N-{[4-(dimethylamino)phenyl]methyl}-2-({[({4-[(trifluoromethyl)oxy]phenyl}oxy)acetyl]amino}methyl)-1,3-thiazole-4-carboxamide]: 5.70 to 6.30; `COc1ccccc1CNC(=O)c1csc(CNC(=O)COc2ccc(Br)cc2)n1` [Entry 277, 2-[({[(4-bromophenyl)oxy]acetyl}amino)methyl]-N-{[2-(methyloxy)phenyl]methyl}-1,3-thiazole-4-carboxamide]: 5.70 to 6.30. `O=C(COc1ccc(OC(F)(F)F)cc1)NCc1nc(C(=O)NCC(c2ccccc2)c2ccccc2)co1` [Entry 226, N-(2,2-diphenylethyl)-2-({[({4-[(trifluoromethyl)oxy]phenyl}oxy)acetyl]amino}methyl)-1,3-oxazole-4-carboxamide]: the pIC50 was 5.70 to 6.30.

On to `CCOc1ccccc1CNC(=O)c1coc(CNC(=O)COc2ccc(OC(F)(F)F)cc2)n1` [Entry 235, N-{[2-(ethyloxy)phenyl]methyl}-2-({[({4-[(trifluoromethyl)oxy]phenyl}oxy)acetyl]amino}methyl)-1,3-oxazole-4-carboxamide], for which the pIC50 is 5.70 to 6.30. Next, `CC(C)CCCCCCNC(=O)c1csc(CNC(=O)COc2ccc(OC(F)(F)F)cc2)n1` [Entry 189, N-(7-methyloctyl)-2-({[({4-[(trifluoromethyl)oxy]phenyl}oxy)acetyl]amino}methyl)-1,3-thiazole-4-carboxamide]: 6.30 to 7.30; `CCCCCC(C)NC(=O)c1csc(CNC(=O)COc2ccc(OC(F)(F)F)cc2)n1` (stereo not shown) [Entry 179, N-(1-methylhexyl)-2-({[({4-[(trifluoromethyl)oxy]phenyl}oxy)acetyl]amino}methyl)-1,3-thiazole-4-carboxamide]: 6.30 to 7.30; `CC1CN(C(=O)c2csc(CNC(=O)COc3ccc(OC(F)(F)F)cc3)n2)CCN1c1ccccc1` (stereo not shown) [Entry 253, N-({4-[(3-methyl-4-phenylpiperazin-1-yl)carbonyl]-1,3-thiazol-2-yl}methyl)-2-({4-[(trifluoromethyl)oxy]phenyl}oxy)acetamide]: 5.70 to 6.30. Turning to `Cc1ccc(CNC(=O)c2csc(CNC(=O)COc3ccc(OC(F)(F)F)cc3)n2)cc1` [Entry 170, N-[(4-methylphenyl)methyl]-2-({[({4-[(trifluoromethyl)oxy]phenyl}oxy)acetyl]amino}methyl)-1,3-thiazole-4-carboxamide], the pIC50 was 6.30 to 7.30. In the case of `O=C(NCCc1cccc(Cl)c1)c1csc(CNC(=O)c2cccnc2Oc2ccc(Cl)cc2)n1` [Entry 62, N-{[4-({[2-(3-chlorophenyl)ethyl]amino}carbonyl)-1,3-thiazol-2-yl]methyl}-2-[(4-chlorophenyl)oxy]pyridine-3-carboxamide] it was 6.30 to 7.30; in that of `COc1ccc(CCNC(=O)c2coc(CNC(=O)COc3ccc(OC(F)(F)F)cc3)n2)cc1` [Entry 224, N-{2-[4-(methyloxy)phenyl]ethyl}-2-({[({4-[(trifluoromethyl)oxy]phenyl}oxy)acetyl]amino}methyl)-1,3-oxazole-4-carboxamide], 5.70 to 6.30; in that of `CC1CCCCC1NC(=O)c1csc(CNC(=O)COc2ccc(OC(F)(F)F)cc2)n1` (stereo not shown) [Entry 87, N-(2-methylcyclohexyl)-2-({[({4-[(trifluoromethyl)oxy]phenyl}oxy)acetyl]amino}methyl)-1,3-thiazole-4-carboxamide], 6.30 to 7.30. As to `O=C(COc1ccc(OC(F)(F)F)cc1)NCc1nc(C(=O)NCCc2cccs2)cs1` [Entry 19, N-[2-(2-thienyl)ethyl]-2-({[({4-[(trifluoromethyl)oxy]phenyl}oxy)acetyl]amino}methyl)-1,3-thiazole-4-carboxamide], the pIC50 is more than 7.30. Take `CCCCOc1ccc(NC(=O)NCc2nc(C(=O)NCc3ccccc3OC)cs2)cc1` [Entry 214, 2-{[({[4-(butyloxy)phenyl]amino}carbonyl)amino]methyl}-N-{[2-(methyloxy)phenyl]methyl}-1,3-thiazole-4-carboxamide]: the pIC50 was 6.30 to 7.30.

Turning to `Cc1ccsc1CNC(=O)c1csc(CNC(=O)COc2ccc(OC(F)(F)F)cc2)n1` [Entry 133, N-[(3-methyl-2-thienyl)methyl]-2-({[({4-[(trifluoromethyl)oxy]phenyl}oxy)acetyl]amino}methyl)-1,3-thiazole-4-carboxamide], the pIC50 was 6.30 to 7.30.

In the case of `O=C(COc1ccc(OC(F)(F)F)cc1)NCc1nc(C(=O)N2CCN(c3c(Cl)cncc3Cl)CC2)cs1` [Entry 66, N-[(4-{[4-(3,5-dichloropyridin-4-yl)piperazin-1-yl]carbonyl}-1,3-thiazol-2-yl)methyl]-2-({4-[(trifluoromethyl)oxy]phenyl}oxy)acetamide], the pIC50 was 6.30 to 7.30. For the compound `COc1ccccc1CNC(=O)c1csc(CNC(=O)Cc2ccc(C(C)C)cc2)n1` [Entry 192, 2-[({[4-(1-methylethyl)phenyl]acetyl}amino)methyl]-N-{[2-(methyloxy)phenyl]methyl}-1,3-thiazole-4-carboxamide], the pIC50 was 6.30 to 7.30. Next, `CC(C)CCNC(=O)c1csc(CNC(=O)COc2ccc(OC(F)(F)F)cc2)n1` [Entry 138, N-(3-methylbutyl)-2-({[({4-[(trifluoromethyl)oxy]phenyl}oxy)acetyl]amino}methyl)-1,3-thiazole-4-carboxamide]: 6.30 to 7.30; `O=C(COc1ccc(OC(F)(F)F)cc1)NCc1nc(C(=O)N[C@@H]2CCC[C@H]2OCc2ccccc2)cs1` [Entry 218, N-{(1R,2R)-2-[(phenylmethyl)oxy]cyclopentyl}-2-({[({4-[(trifluoromethyl)oxy]phenyl}oxy)acetyl]amino}methyl)-1,3-thiazole-4-carboxamide]: 6.30 to 7.30; `O=C(COc1ccc(OC(F)(F)F)cc1)NCc1nc(C(=O)NC2CCCC2)cs1` [Entry 228, N-cyclopentyl-2-({[({4-[(trifluoromethyl)oxy]phenyl}oxy)acetyl]amino}methyl)-1,3-thiazole-4-carboxamide]: 5.70 to 6.30.

For `CCC(NC(=O)c1csc(CNC(=O)COc2ccc(OC(F)(F)F)cc2)n1)c1ccccc1` (stereo not shown) [Entry 65, N-(1-phenylpropyl)-2-({[({4-[(trifluoromethyl)oxy]phenyl}oxy)acetyl]amino}methyl)-1,3-thiazole-4-carboxamide], the pIC50 is 6.30 to 7.30.

On to `O=C(COc1ccc(OC(F)(F)F)cc1)NCc1nc(C(=O)NCC(F)(F)F)cs1` [Entry 280, N-(2,2,2-trifluoroethyl)-2-({[({4-[(trifluoromethyl)oxy]phenyl}oxy)acetyl]amino}methyl)-1,3-thiazole-4-carboxamide], for which the pIC50 is 5.70 to 6.30.

Take `CC(CNC(=O)c1csc(CNC(=O)COc2ccc(OC(F)(F)F)cc2)n1)c1ccccc1` (stereo not shown) [Entry 7, N-(2-phenylpropyl)-2-({[({4-[(trifluoromethyl)oxy]phenyl}oxy)acetyl]amino}methyl)-1,3-thiazole-4-carboxamide]: the pIC50 is more than 7.30. Regarding `O=C(COc1ccc(OC(F)(F)F)cc1)NCc1nc(C(=O)N[C@@H](Cc2ccccc2)C(=O)N2CCCC2)cs1` [Entry 91, N-[(1S)-2-oxo-1-(phenylmethyl)-2-pyrrolidin-1-ylethyl]-2-({[({4-[(trifluoromethyl)oxy]phenyl}oxy)acetyl]amino}methyl)-1,3-thiazole-4-carboxamide], the pIC50 was 6.30 to 7.30.

For `CC1CCC(NC(=O)c2csc(CNC(=O)COc3ccc(OC(F)(F)F)cc3)n2)CC1` (stereo not shown) [Entry 140, N-(4-methylcyclohexyl)-2-({[({4-[(trifluoromethyl)oxy]phenyl}oxy)acetyl]amino}methyl)-1,3-thiazole-4-carboxamide], the pIC50 was 6.30 to 7.30. Next, `O=C(CNC(=O)c1ccc([N+](=O)[O-])cc1)NCc1nc(C(=O)NCCc2cccc(Cl)c2)cs1` [Entry 136, N-[2-(3-chlorophenyl)ethyl]-2-[({N-[(4-nitrophenyl)carbonyl]glycyl}amino)methyl]-1,3-thiazole-4-carboxamide]: 6.30 to 7.30; `Cc1ccc(CCNC(=O)c2coc(CNC(=O)COc3ccc(OC(F)(F)F)cc3)n2)cc1C` [Entry 211, N-[2-(3,4-dimethylphenyl)ethyl]-2-({[({4-[(trifluoromethyl)oxy]phenyl}oxy)acetyl]amino}methyl)-1,3-oxazole-4-carboxamide]: 6.30 to 7.30; `O=C(C/C=C/c1ccccc1)NCc1nc(C(=O)NCCc2ccccc2F)cs1` [Entry 276, N-[2-(2-fluorophenyl)ethyl]-2-({[(3E)-4-phenylbut-3-enoyl]amino}methyl)-1,3-thiazole-4-carboxamide]: 5.70 to 6.30.
